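Assay format: 96-well plates, 48-hour exposure. The concentration for 50% growth inhibition is given as GI50. TGI denotes the concentration required for complete inhibition of growth.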 Where only a bound is given, the exact number is not on record here.

Test systems include CAKI-1 renal; KM12 colon; TK-10 renal; SK-MEL-2 melanoma; PC-3 prostate; SNB-19 CNS; M14 melanoma; HOP-62 NSCLC; CCRF-CEM leukemia; OVCAR-4 ovarian.
Common to all, as to test: NCI anticancer screen, dose series, 48 h

For the compound `C=C1SC(=Nc2ccccc2Cl)N(C(=O)c2sc3ccccc3c2Cl)C1(C)C`, the GI50 in the assay on CAKI-1 renal was 2.73 µM; in the assay on KM12 colon, 4.01 µM; with TK-10 renal, 5.57 µM; with SK-MEL-2 melanoma, 8.83 µM; in the assay on PC-3 prostate it was 4.68 µM; with SNB-19 CNS, 3.64 µM. In addition, the GI50 in the assay with M14 melanoma was 21 µM; with HOP-62 NSCLC, 10.5 µM; in the assay on CCRF-CEM leukemia, 3.93 µM; in the assay with OVCAR-4 ovarian, 5.54 µM. Besides, the TGI is 19.4 µM with CAKI-1 renal; above 51.9 µM in the assay on KM12 colon; 37.1 µM with TK-10 renal; 31.9 µM in the assay with SK-MEL-2 melanoma; above 100 µM with PC-3 prostate; above 100 µM in the assay with SNB-19 CNS. The TGI is above 69.9 µM with M14 melanoma, above 51.1 µM in the assay on HOP-62 NSCLC, above 25.3 µM with CCRF-CEM leukemia and above 100 µM in the assay on OVCAR-4 ovarian.
As for `N#C/C(=C/C=C/c1ccccc1)S(=O)c1ccccc1` (stereo not given), the GI50 was 0.418 µM in the assay on CAKI-1 renal; 0.594 µM in the assay on KM12 colon; 0.501 µM with TK-10 renal; 2.09 µM in the assay on SK-MEL-2 melanoma; 1.35 µM in the assay on PC-3 prostate; 0.638 µM in the assay on SNB-19 CNS. The GI50 is 0.655 µM with M14 melanoma, 1.29 µM in the assay on HOP-62 NSCLC, 0.341 µM in the assay with CCRF-CEM leukemia and 0.329 µM with OVCAR-4 ovarian. The TGI in the assay on CAKI-1 renal came to 1.55 µM; in the assay on KM12 colon it was 2.17 µM; in the assay with TK-10 renal, 1.85 µM; in the assay on SK-MEL-2 melanoma, 5.62 µM; in the assay on PC-3 prostate, 3.33 µM; in the assay on SNB-19 CNS it was 2.58 µM. The TGI was determined as 2.7 µM in the assay on M14 melanoma, 5.36 µM in the assay with HOP-62 NSCLC, 1.59 µM in the assay on CCRF-CEM leukemia and 2.27 µM in the assay on OVCAR-4 ovarian.
As to `O=C1C(Cl)=C(Nc2cccc(O)c2)C(=O)N1c1cccc(Cl)c1`, the GI50 in the assay on CAKI-1 renal was 49.9 µM; in the assay on KM12 colon it was 68.2 µM; in the assay with TK-10 renal it was above 100 µM; in the assay on SK-MEL-2 melanoma, 34.7 µM; with PC-3 prostate, 21.4 µM; in the assay with SNB-19 CNS it was 71.5 µM. Also, the GI50 is 28.8 µM in the assay on M14 melanoma, 52.7 µM in the assay with HOP-62 NSCLC, 10.7 µM in the assay on CCRF-CEM leukemia and 50.6 µM with OVCAR-4 ovarian. The TGI with CAKI-1 renal, in the assay with KM12 colon, with TK-10 renal, in the assay with SK-MEL-2 melanoma, in the assay with PC-3 prostate and with SNB-19 CNS was above 100 µM in each case. In addition, the TGI in the assay with M14 melanoma was above 100 µM; in the assay on HOP-62 NSCLC it was above 100 µM; in the assay with CCRF-CEM leukemia, 31.8 µM; in the assay on OVCAR-4 ovarian it was above 100 µM.
`COc1ccccc1N1CCN(C(=O)c2ccc(NS(=O)(=O)c3cccc4cccnc34)cc2)CC1`: the GI50 with CAKI-1 renal is above 100 µM; in the assay on KM12 colon it was above 100 µM; in the assay on TK-10 renal it was above 64.1 µM; in the assay with SK-MEL-2 melanoma it was above 100 µM; in the assay with PC-3 prostate, above 100 µM; in the assay with SNB-19 CNS, 29.5 µM. Also, the GI50 was above 100 µM in the assay on M14 melanoma, above 49.7 µM in the assay with HOP-62 NSCLC, above 100 µM in the assay with CCRF-CEM leukemia and above 100 µM in the assay on OVCAR-4 ovarian. The TGI was above 100 µM with CAKI-1 renal; above 100 µM in the assay with KM12 colon; above 100 µM in the assay with TK-10 renal; above 100 µM in the assay with SK-MEL-2 melanoma; above 100 µM with PC-3 prostate; above 85.5 µM with SNB-19 CNS. Besides, the TGI in the assay on M14 melanoma, with HOP-62 NSCLC, with CCRF-CEM leukemia and with OVCAR-4 ovarian was above 100 µM in each case.
On to `CC(C)(C)N1CC(OC(N)=O)C1`, for which the GI50 in the assay on CAKI-1 renal, in the assay on KM12 colon, with TK-10 renal, in the assay with SK-MEL-2 melanoma, in the assay on PC-3 prostate and in the assay on SNB-19 CNS was above 100 µM throughout. Also, the GI50 in the assay with M14 melanoma, in the assay with HOP-62 NSCLC, in the assay with CCRF-CEM leukemia and in the assay on OVCAR-4 ovarian was above 100 µM each time. Also, the TGI in the assay with CAKI-1 renal, in the assay on KM12 colon, with TK-10 renal, in the assay with SK-MEL-2 melanoma, in the assay on PC-3 prostate and with SNB-19 CNS was above 100 µM throughout. Further, the TGI in the assay on M14 melanoma, in the assay with HOP-62 NSCLC, in the assay with CCRF-CEM leukemia and in the assay with OVCAR-4 ovarian was above 100 µM each time.
Regarding `O=C1c2cccc3cc([N+](=O)[O-])cc(c23)C(=O)N1CCN1CCCC1`, the GI50 in the assay with CAKI-1 renal is 0.216 µM; in the assay on KM12 colon it was 0.551 µM; in the assay on TK-10 renal it was 0.697 µM; with SK-MEL-2 melanoma it was 1.88 µM; with PC-3 prostate it was 1.58 µM; with SNB-19 CNS, 0.35 µM. The GI50 is 0.451 µM in the assay on M14 melanoma, 0.312 µM in the assay on HOP-62 NSCLC, 0.343 µM in the assay with CCRF-CEM leukemia and 1.48 µM with OVCAR-4 ovarian. For the same compound, the TGI in the assay with CAKI-1 renal is 0.892 µM; in the assay on KM12 colon it was 9.02 µM; in the assay on TK-10 renal, 2.52 µM; in the assay with SK-MEL-2 melanoma, 4.45 µM; in the assay with PC-3 prostate, 12.5 µM; in the assay on SNB-19 CNS, 2.42 µM. Besides, the TGI in the assay with M14 melanoma was 2.08 µM; in the assay on HOP-62 NSCLC it was 1.7 µM; in the assay with CCRF-CEM leukemia it was 7.02 µM; in the assay with OVCAR-4 ovarian it was 11.7 µM.
For `CCn1cc(C(=O)N/N=C/c2cccc(F)c2)c(=O)c2cc(F)c(N3CCNC(C)C3)c(F)c21` (stereo not given), the GI50 in the assay with CAKI-1 renal was 1.73 µM; in the assay on KM12 colon, 1.83 µM; with TK-10 renal it was 1.73 µM; in the assay with SK-MEL-2 melanoma, 1.97 µM; in the assay with PC-3 prostate, 1.62 µM; in the assay with SNB-19 CNS, 1.7 µM. The GI50 in the assay with M14 melanoma is 1.82 µM; in the assay on HOP-62 NSCLC it was 1.66 µM; with CCRF-CEM leukemia, 1.55 µM; in the assay on OVCAR-4 ovarian it was 2.02 µM. Also, the TGI with CAKI-1 renal is 3.15 µM; in the assay on KM12 colon it was 3.39 µM; in the assay on TK-10 renal, 3.18 µM; with SK-MEL-2 melanoma, 3.86 µM; with PC-3 prostate, 3.09 µM; in the assay with SNB-19 CNS, 3.15 µM. Besides, the TGI in the assay with M14 melanoma stood at 3.37 µM; in the assay on HOP-62 NSCLC, 3.09 µM; with CCRF-CEM leukemia, 3.39 µM; in the assay with OVCAR-4 ovarian it was 4.22 µM.

For the origin of these results see PubChem BioAssay (NCI).
